Consider 13 compounds from ChEMBL document CHEMBL4665817, “Immobilized Metal Affinity Chromatography as a Drug Discovery Platform for Metalloenzyme Inhibitors” (J Med Chem, 2020).

What all share (conditions): dose 2.55 µmol
The nature of experiment [1]: Binding affinity to Zinc ion assessed as performance ratio ratio by measuring product of accounting ratio and retention ratio at 2.55 umol by immobilized metal-ion affinity chromatography.
Experiment [2] in a line: Binding affinity to Gallium ion assessed as performance ratio ratio by measuring product of accounting ratio and retention ratio at 2.55 umol by immobilized metal-ion affinity chromatography.
Experiment [3] is described as follows: Binding affinity to cupric ion assessed as performance ratio ratio by measuring product of accounting ratio and retention ratio at 2.55 umol by immobilized metal-ion affinity chromatography.
Experiment [4] in a line: Binding affinity to Ferric ion assessed as performance ratio ratio by measuring product of accounting ratio and retention ratio at 2.55 umol by immobilized metal-ion affinity chromatography.
Experiment [5] is described as follows: Binding affinity to ferric ion assessed as accounting ratio by measuring total compound detected/total compound adsorbed at 2.55 umol by immobilized metal-ion affinity chromatography.
The nature of experiment [6]: Binding affinity to cupric ion assessed as accounting ratio by measuring total compound detected/total compound adsorbed at 2.55 umol by immobilized metal-ion affinity chromatography.
Experiment [7] in a line: Binding affinity to Gallium ion assessed as retention ratio by measuring compound detected in elution fraction/total compound detected at 2.55 umol by immobilized metal-ion affinity chromatography.
Experiment [8] can be described thus: Binding affinity to zinc ion assessed as accounting ratio by measuring total compound detected/total compound adsorbed at 2.55 umol by immobilized metal-ion affinity chromatography.
The nature of experiment [9]: Binding affinity to Nickel cation assessed as performance ratio ratio by measuring product of accounting ratio and retention ratio at 2.55 umol by immobilized metal-ion affinity chromatography.
Experiment [10] is described as follows: Binding affinity to Zinc ion assessed as retention ratio by measuring compound detected in elution fraction/total compound detected at 2.55 umol by immobilized metal-ion affinity chromatography.
Experiment [11] is described as follows: Binding affinity to Nickel cation assessed as accounting ratio by measuring total compound detected/total compound adsorbed at 2.55 umol by immobilized metal-ion affinity chromatography.
Experiment [12] can be described thus: Binding affinity to cupric ion assessed as retention ratio by measuring compound detected in elution fraction/total compound detected at 2.55 umol by immobilized metal-ion affinity chromatography.
Experiment [13] can be described thus: Binding affinity to gallium ion assessed as accounting ratio by measuring total compound detected/total compound adsorbed at 2.55 umol by immobilized metal-ion affinity chromatography.
Experiment [14] can be described thus: Binding affinity to Nickel cation assessed as retention ratio by measuring compound detected in elution fraction/total compound detected at 2.55 umol by immobilized metal-ion affinity chromatography.
Experiment [15] in a line: Binding affinity to Ferric ion assessed as retention ratio by measuring compound detected in elution fraction/total compound detected at 2.55 umol by immobilized metal-ion affinity chromatography.

On to `CC(=O)Nc1ccc(C(=O)Nc2ccccc2N)cc1`, for which the Ratio is 0 in experiment [1]; 0 in experiment [2]; 0 in experiment [3]; 0 in [4]; 1.01 in [5]; 0.99 in experiment [6]. Moreover, the Ratio in [7] came out at 0; in experiment [8], 1.01; in [9], 0.01; in [10], 0; in experiment [11] it was 1; in experiment [12] it was 0. Further, the Ratio in experiment [13] is 0.99; in experiment [14], 0.01; in experiment [15], 0.
Take `O=C(/C=C/c1cccc(S(=O)(=O)Nc2ccccc2)c1)NO`: the Ratio worked out at 1.21 in experiment [1]; 0.23 in experiment [2]; 0.13 in experiment [3]; 0 in experiment [4]; 0 in [5]; 0.13 in [6]. Moreover, the Ratio in [7] stood at 1; in experiment [8], 1.21; in experiment [9] it was 1.08; in experiment [10] it was 1; in [11], 1.08; in experiment [12], 1. For the same compound, the Ratio in experiment [13] came out at 0.23; in experiment [14], 1; in experiment [15], 0.
As for `Cc1[nH]c2ccccc2c1CCNCc1ccc(/C=C/C(=O)NO)cc1`, the Ratio in experiment [1] is 0.7; in [2] it was 0; in [3], 0.25; in experiment [4], 0.03; in experiment [5], 0.03; in [6] it was 0.25. For the same compound, the Ratio is 0 in experiment [7]; 0.7 in experiment [8]; 0.84 in experiment [9]; 1 in experiment [10]; 0.84 in [11]; 1 in experiment [12]. Further, the Ratio in [13] was determined as 0; in experiment [14], 1; in experiment [15], 1.
For the compound `Cc1ccc(Cl)c(Nc2ccccc2C(=O)O)c1Cl`, the Ratio in [1] was determined as 0; in experiment [2] it was 0; in experiment [3], 0; in experiment [4] it was 0; in [5], 0.99; in experiment [6] it was 1.05. The Ratio in experiment [7] worked out at 0; in experiment [8], 0.97; in experiment [9], 0; in experiment [10], 0; in experiment [11], 0.96; in experiment [12], 0. The Ratio in experiment [13] came to 1.01; in [14] it was 0; in [15], 0.
For `C[C@H](N[C@@H](CCc1ccccc1)C(=O)O)C(=O)N1CCC[C@H]1C(=O)O`, the Ratio came to 0.01 in experiment [1]; 0 in experiment [2]; 0 in [3]; 0 in [4]; 1.02 in [5]; 0.99 in experiment [6]. The Ratio is 0 in [7]; 0.98 in [8]; 0 in experiment [9]; 0.01 in [10]; 0.81 in [11]; 0 in experiment [12]. Moreover, the figures for the Ratio in [13], in experiment [14] and in experiment [15] were 1, 0 and 0, respectively.
As for `C[C@H](CS)C(=O)N1CCC[C@H]1C(=O)O`, the Ratio in [1] came to 1.17; in experiment [2], 0; in experiment [3], 0; in [4], 0; in experiment [5] it was 0; in experiment [6], 0. Besides, the Ratio in experiment [7] is 0; in experiment [8], 1.17; in experiment [9], 0; in [10], 1; in [11], 0; in experiment [12], 0. In addition, the Ratio in experiment [13], in experiment [14] and in [15] was 0 each time.
On to `O=C(CCCCCCC(=O)Nc1ccccc1)NO`, for which the Ratio in [1] amounted to 1.19; in experiment [2], 0.41; in [3] it was 0.08; in experiment [4], 0; in experiment [5], 0; in experiment [6], 0.14. Also, the Ratio in experiment [7] turned out to be 1; in [8], 1.19; in experiment [9] it was 1.14; in experiment [10] it was 1; in experiment [11], 1.14; in experiment [12], 0.61. In addition, the Ratio stood at 0.41 in [13], 1 in [14] and 0 in experiment [15].
With `COc1c(N2C[C@@H]3CCCN[C@@H]3C2)c(F)cc2c(=O)c(C(=O)O)cn(C3CC3)c12`, the Ratio in experiment [1] turned out to be 1.05; in [2], 0.02; in [3], 0.24; in [4], 0.15; in [5], 0.21; in experiment [6] it was 0.25. In addition, the Ratio was 0.14 in [7]; 1.05 in experiment [8]; 0.89 in [9]; 1 in [10]; 0.89 in [11]; 0.95 in [12]. The Ratio in experiment [13] turned out to be 0.16; in [14], 1; in [15] it was 0.73.
Turning to `O=C(O)c1cc(/N=N/c2ccc(S(=O)(=O)Nc3ccccn3)cc2)ccc1O`, the Ratio is 0.48 in [1]; 0.82 in experiment [2]; 0.63 in experiment [3]; 0.79 in [4]; 0.79 in [5]; 1 in experiment [6]. In addition, the Ratio in experiment [7] worked out at 0.99; in experiment [8] it was 0.61; in experiment [9] it was 0.89; in experiment [10], 0.79; in experiment [11], 0.89; in experiment [12], 0.63. The Ratio was determined as 0.83 in [13], 1 in experiment [14] and 1 in [15].
Consider `Nc1ccc(C(=O)O)c(O)c1`, for which the Ratio stood at 0 in experiment [1]; 0.52 in experiment [2]; 0 in experiment [3]; 0.08 in experiment [4]; 0.15 in experiment [5]; 0.87 in experiment [6]. For the same compound, the Ratio in [7] was 0.74; in experiment [8], 0.87; in experiment [9] it was 0; in [10], 0; in experiment [11], 0.83; in [12], 0. The Ratio in experiment [13] was 0.69; in [14] it was 0; in [15], 0.51.
Regarding `C[C@H](CSC(=O)c1ccccc1)C(=O)N1C[C@@H](Sc2ccccc2)C[C@H]1C(=O)O`, the Ratio in [1] worked out at 0.01; in experiment [2] it was 0.01; in experiment [3], 0; in experiment [4], 0; in experiment [5] it was 1.46; in experiment [6], 1.51. The Ratio in experiment [7] turned out to be 0.01; in experiment [8], 1.4; in experiment [9], 0.01; in [10], 0.01; in experiment [11] it was 1.29; in experiment [12], 0. The Ratio in [13] was 1.43; in [14], 0.01; in [15], 0.
Take `Nc1ccccc1NC(=O)c1ccc(CNC(=O)OCc2cccnc2)cc1`: the Ratio in experiment [1] came to 0.01; in experiment [2], 0.01; in experiment [3] it was 0.01; in [4], 0; in experiment [5], 0.99; in experiment [6], 0.59. Further, the Ratio in experiment [7] amounted to 0.01; in [8], 0.83; in [9] it was 0.21; in experiment [10], 0.01; in experiment [11], 0.35; in experiment [12], 0.02. Besides, the Ratio in experiment [13] stood at 0.98; in [14], 0.6; in experiment [15], 0.
As for `O=C(N[C@H]1CCS[C@H]2CCC[C@@H](C(=O)O)N2C1=O)[C@@H](S)Cc1ccccc1`, the Ratio in [1] stood at 1.43; in [2], 0; in experiment [3] it was 0; in [4] it was 0; in experiment [5], 0; in [6], 0. In addition, the Ratio stood at 0 in experiment [7]; 1.43 in experiment [8]; 0.19 in experiment [9]; 1 in experiment [10]; 0.19 in experiment [11]; 0 in experiment [12]. Moreover, the Ratio in experiment [13] was determined as 0; in experiment [14], 1; in experiment [15], 0.
